Test results reported in the supplement of paper PMC10307832.

Assays:
Assay in all cases: relative viability (nuclei count vs DMSO), 5 days (fraction); higher = more cells survive
[1] = test system: LCLC-103H
Method in brief: (§1)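 Medians of duplicate plates are given as relative viability. That measure is the nuclei count in treated wells divided by the count in vehicle wells. Counts were taken on 4× images of lung cancer cell lines in 1536-well plates, 5 days after pin-tool dosing the day after seeding with one drug alone or a fixed anchor-drug dose plus five library-drug doses (not always all listed) in √10 steps.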

[2] = test system: NCI-H23
Method in brief: as §1

[3] = test system: NCI-H322M
Method in brief: as §1

[4] = test system: NCI-H2085
Method in brief: as §1

[5] = test system: ChaGo-K-1
Method in brief: as §1

[6] = test system: COR-L23
Method in brief: as §1

[7] = test system: NCI-H1355
Method in brief: as §1

[8] = test system: HOP-62
Method in brief: as §1

[9] = test system: NCI-H1651
Method in brief: as §1

[10] = test system: LC-2-ad
Method in brief: as §1

[11] = test system: NCI-H2347
Method in brief: as §1

[12] = test system: NCI-H661
Method in brief: as §1

[13] = test system: CAL-12T
Method in brief: as §1

[14] = test system: NCI-H1993
Method in brief: as §1

[15] = test system: NCI-H838
Method in brief: as §1

[16] = test system: ABC-1
Method in brief: as §1

[17] = test system: NCI-H1666
Method in brief: as §1

[18] = test system: NCI-H520
Method in brief: as §1

[19] = test system: HCC-44
Method in brief: as §1

[20] = test system: NCI-H647
Method in brief: as §1

[21] = test system: 201T
Method in brief: as §1

[22] = test system: NCI-H2228
Method in brief: as §1

## CCCCCCCCCCCC1=C(O)C(=O)C=C(O)C1=O [Embelin] + CC(C)C[C@H](NC(=O)[C@H](Cc1ccccc1)NC(=O)c1cnccn1)B(O)O [Bortezomib] (partner 0.002 µM)
[1]; first compound 0.08 µM
  relative viability: 1
[1]; first compound 0.8 µM
  relative viability: 1.14
[1]; first compound 2.53 µM
  relative viability: 1.07
[1]; first compound 8 µM
  relative viability: 0.885
[2]; first compound 0.08 µM
  relative viability: 0.971
[2]; first compound 0.8 µM
  relative viability: 1.06
[2]; first compound 2.53 µM
  relative viability: 1.19
[2]; first compound 8 µM
  relative viability: 1.23
[3]; first compound 0.08 µM
  relative viability: 1.21
[3]; first compound 0.8 µM
  relative viability: 1.34
[3]; first compound 2.53 µM
  relative viability: 1.44
[3]; first compound 8 µM
  relative viability: 1.29
[4]; first compound 0.08 µM
  relative viability: 0.989
[4]; first compound 0.8 µM
  relative viability: 1.07
[4]; first compound 2.53 µM
  relative viability: 1.07
[4]; first compound 8 µM
  relative viability: 1.03
[5]; first compound 0.08 µM
  relative viability: 0.988
[5]; first compound 0.8 µM
  relative viability: 1.37
[5]; first compound 2.53 µM
  relative viability: 0.946
[5]; first compound 8 µM
  relative viability: 0.793
[6]; first compound 0.08 µM
  relative viability: 1
[6]; first compound 0.8 µM
  relative viability: 1.1
[6]; first compound 2.53 µM
  relative viability: 1.21
[6]; first compound 8 µM
  relative viability: 1.21
[7]; first compound 0.08 µM
  relative viability: 1.16
[7]; first compound 0.8 µM
  relative viability: 1.24
[7]; first compound 2.53 µM
  relative viability: 1.21
[7]; first compound 8 µM
  relative viability: 1.02
[8]; first compound 0.08 µM
  relative viability: 0.924
[8]; first compound 0.8 µM
  relative viability: 0.846
[8]; first compound 2.53 µM
  relative viability: 1.15
[8]; first compound 8 µM
  relative viability: 0.727
[9]; first compound 0.08 µM
  relative viability: 0.958
[9]; first compound 0.8 µM
  relative viability: 0.92
[9]; first compound 2.53 µM
  relative viability: 1.01
[9]; first compound 8 µM
  relative viability: 1.02
[10]; first compound 0.08 µM
  relative viability: 0.959
[10]; first compound 0.8 µM
  relative viability: 1.1
[10]; first compound 2.53 µM
  relative viability: 1.05
[10]; first compound 8 µM
  relative viability: 1.02
[11]; first compound 0.08 µM
  relative viability: 1.15
[11]; first compound 0.8 µM
  relative viability: 1.1
[11]; first compound 2.53 µM
  relative viability: 1.15
[11]; first compound 8 µM
  relative viability: 1.05
[12]; first compound 0.08 µM
  relative viability: 0.961
[12]; first compound 0.8 µM
  relative viability: 0.867
[12]; first compound 2.53 µM
  relative viability: 0.997
[12]; first compound 8 µM
  relative viability: 0.78
[13]; first compound 0.08 µM
  relative viability: 0.996
[13]; first compound 0.8 µM
  relative viability: 1.27
[13]; first compound 8 µM
  relative viability: 1.04
[14]; first compound 0.08 µM
  relative viability: 1.16
[14]; first compound 0.8 µM
  relative viability: 1.14
[14]; first compound 2.53 µM
  relative viability: 1.22
[14]; first compound 8 µM
  relative viability: 1.08
[15]; first compound 0.08 µM
  relative viability: 1.38
[15]; first compound 0.8 µM
  relative viability: 1.12
[15]; first compound 2.53 µM
  relative viability: 0.72
[15]; first compound 8 µM
  relative viability: 0.936
[16]; first compound 0.08 µM
  relative viability: 0.299
[16]; first compound 0.8 µM
  relative viability: 0.371
[16]; first compound 2.53 µM
  relative viability: 0.252
[16]; first compound 8 µM
  relative viability: 0.257
[17]; first compound 0.08 µM
  relative viability: 0.655
[17]; first compound 0.8 µM
  relative viability: 1.05
[17]; first compound 2.53 µM
  relative viability: 0.922
[17]; first compound 8 µM
  relative viability: 0.829
[18]; first compound 0.08 µM
  relative viability: 0.848
[18]; first compound 0.8 µM
  relative viability: 0.255
[18]; first compound 2.53 µM
  relative viability: 0.668
[18]; first compound 8 µM
  relative viability: 0.511
[19]; first compound 0.08 µM
  relative viability: 0.838
[19]; first compound 0.8 µM
  relative viability: 0.865
[19]; first compound 2.53 µM
  relative viability: 0.864
[19]; first compound 8 µM
  relative viability: 0.897
[20]; first compound 0.08 µM
  relative viability: 1.08
[20]; first compound 0.8 µM
  relative viability: 1.28
[20]; first compound 2.53 µM
  relative viability: 1.43
[20]; first compound 8 µM
  relative viability: 0.929
[21]; first compound 0.08 µM
  relative viability: 1.06
[21]; first compound 0.8 µM
  relative viability: 1.17
[21]; first compound 2.53 µM
  relative viability: 1.09
[21]; first compound 8 µM
  relative viability: 1.09
[22]; first compound 0.08 µM
  relative viability: 0.939
[22]; first compound 0.8 µM
  relative viability: 1.03
[22]; first compound 2.53 µM
  relative viability: 1.29
[22]; first compound 8 µM
  relative viability: 1.26
